Test results reported in patent publication US20150148387A1, “METHODS OF TREATMENT, DIAGNOSIS AND […] METHA[…] WHICH TARGET CERAMIDE METABOLIC […] AND […] SENESCENCE” (priority 2012, published 2015).
Entries after “also recorded” stand apart in the source; their conditions may differ. Where a name gives a salt, the structure may show the parent alone. Read-outs that look alike come from different tables or passages of the source.

Assays:
[1] = test system: primary mouse embryonic fibroblasts (MEF); type: cell-based; conditions: for amphetamine-induced inflammation and senescence: measured by beta-galactosidase assay, crystal violet morphology, and gene expression of pro-inflammatory and pro-senescence genes; for SA-β-gal expression induced by methamphetamine: methamphetamine 1 mM
Experimental: Detection of senescence-associated β-galactosidase staining was performed as previously reported. Briefly, we plated MEFs on Lab-Tek chamber slides at a density of 5×10^4 cells per chamber. Next day, cells were treated with the indicated dose of drug for 48 hours. Cells were washed twice with PBS and fixed in 2% formaldehyde/0.2% glutaraldehyde for five minutes at room temperature. After two PBS washes the slides were incubated with fresh β-galactosidase stain solution (1 mg/mL 5-bromo-4-chloro-3-indoyl β-D-galactoside (X-Gal) 40 mM sodium phosphate, pH 6.0, 5 mM potassium ferrocyanide, 5 mM potassium ferricyanide, 150 mM NaCl, and 2 mM MgCl2) at 37° C. for 12-16 hours. Slides were washed with PBS and mounted with DAPI containing media. Images were taken for the β-gal staining and overlapped with fluorescent images taken of the same region to count the number of cells staining positive for β-gal (Nikon Eclipse E600). More than 200 cells from 5 different regions of a slide were counted in a blind fashion.

[2] = Methamphetamine self-administration in rats: self-administration, body weight, body temperature, food intake; type: in vivo, rat
Experimental: Each experimental group was divided into two subgroups that were tested simultaneously. One subgroup served as yoked controls and passively received an injection of saline (which was not contingent on responding) each time a response-contingent injection of 0.1 mg/kg methamphetamine was actively self-administered by the first subgroup of rats. […] The first experimental groups consisted of 12 rats self-administering methamphetamine and 6 yoked control rats. The second experimental group consisted of 9 rats self-administering methamphetamine and 9 yoked control rats. The third experimental group consisted of 16 rats self-administering methamphetamine and 8 yoked control rats. […] The pretreatment with L-CS was always given immediately before and after each session and the catheter was flushed with 0.5 ml of saline afterwards. Before and after sessions 4 and 5 animals received dose 10 mg/kg of L-CS and before and after sessions 6, 7, and 8 they received dose 20 mg/kg of L-CS. The animals received total dose 160 mg/kg of L-CS during the experiment. In this group, we also measured three times the rectal temperature. The first measurement was done one the day before the experiment began at 2 pm, the second measurement was done at 2 pm before the eighth session, and the third measurement immediately after the eighth session.
Eight consecutive 15-hour sessions were conducted between 4 p.m. and 8 a.m. Rats and the food in the feeders were weighed before the start of each session. At the start of each session, a white house light was turned on and a priming injection of 0.1 mg/kg methamphetamine (or saline for yoked group), sufficient to fill the “dead” space of the IV catheter, was automatically delivered. Rats learned to self-administer methamphetamine under one-response, fixed ratio schedule (FRI) of i.v. methamphetamine injection with 30-s time-out duration. Each nose-poke response in the active hole (FRI) produced a delivery of an i.v. injection of 0.1 mg/kg of methamphetamine followed by 30-s timeout period, during which the chamber was dark and responses in either hole had no programmed consequences.

[3] = test system: de novo ceramide biosynthesis; assay: Methamphetamine self-administration in rats: lipidomic analysis of tissues by LC/MS
Experimental: Male Sprague-Dawley rats (Charles River, Wilmington, Mass.), weighing approximately 360-440 g at the beginning of the self-administration experiment, were individually housed in a temperature- and humidity-controlled environment under a reversed lighting 12-h light/dark cycle (lights on at 7:00 p.m.). The rats were allowed free access to food (NIH07 biscuits) in their home cage throughout the study. Water was available ad libitum in the home cage and in the testing chamber. Rats were tested in the light phase. They were experimentally and drug naïve at the beginning of this study.
Each of eighteen standard operant-conditioning chambers (Coulbourn Instruments, Lehigh Valley, Pa.) contained a white house light and two holes with nose-poke operanda on either side of a food trough. Upon activation, each nose poke produced a brief feedback tone. […] The tubing was attached to a syringe pump (Harvard Apparatus, South Natick, Mass.), which was programmed to deliver 2-s injections. The injected volume was adjusted for every animal to deliver a methamphetamine dose of 0.1 mg/kg/injection. Experimental events were controlled by microcomputers using MED Associates interfaces and software (Med Associates Inc., East Fairfield, Vt.).
Silastic catheter was implanted into the external jugular vein under anesthesia with a mixture of ketamine and xylazine (60 and 10 mg/kg i.p., respectively). Catheter exited the skin behind the ear. After catheter implantation, a nylon bolt glued to an acrylic mesh was implanted subcutaneously in the midscapular region. The nylon bolt served as a tether, preventing the catheter from being pulled out during self-administration sessions. Following surgery, the IV catheter was flushed daily during the first week with 0.2-0.3 ml of solution containing cephalosporin (100 mg/ml; Cefazolin For Injection, USP; Hospira Inc., Lake Forest, Ill., USA) and then flushed before and after each daily session with saline to maintain its patency) and then flushed after each daily session with saline to maintain its patency.
Each experimental group was divided into two subgroups that were tested simultaneously. One subgroup served as yoked controls and passively received an injection of saline (which was not contingent on responding) each time a response-contingent injection of 0.1 mg/kg methamphetamine was actively self-administered by the first subgroup of rats. […] The first experimental groups consisted of 12 rats self-administering methamphetamine and 6 yoked control rats. The second experimental group consisted of 9 rats self-administering methamphetamine and 9 yoked control rats. The third experimental group consisted of 16 rats self-administering methamphetamine and 8 yoked control rats. […] The pretreatment with L-CS was always given immediately before and after each session and the catheter was flushed with 0.5 ml of saline afterwards. Before and after sessions 4 and 5 animals received dose 10 mg/kg of L-CS and before and after sessions 6, 7, and 8 they received dose 20 mg/kg of L-CS. The animals received total dose 160 mg/kg of L-CS during the experiment.
Eight consecutive 15-hour sessions were conducted between 4 p.m. and 8 a.m. Rats and the food in the feeders were weighed before the start of each session. At the start of each session, a white house light was turned on and a priming injection of 0.1 mg/kg methamphetamine (or saline for yoked group), sufficient to fill the “dead” space of the IV catheter, was automatically delivered. Rats learned to self-administer methamphetamine under one-response, fixed ratio schedule (FRI) of i.v. methamphetamine injection with 30-s time-out duration.

[4] = test system: ceramide content and IL-6 and p21 mRNA; assay: Acute experiment in mice: methamphetamine alone or in combination with L-CS
[5] = test system: primary mouse embryonic fibroblasts (MEF); assay: Gene expression in MEF; type: cell-based
Experimental: Total RNA was extracted from frozen tissues using TRIzol reagent (Invitrogen, Carlsbad, Calif.) and was purified with the RNeasy mini kit (Qiagen, Valencia, Calif.). First-strand complementary DNAs were synthesized using SuperScript II RNaseH reverse transcriptase (Invitrogen). Reverse transcription of total RNA (2 μg) was carried out using oligo(dT)12-18 primers for 50 min at 42° C. mRNA levels were measured by quantitative real-time polymerase chain reaction (RT-PCR) with a Mx 3000P system (Stratagene, La Jolla, Calif.). The following list of primers and fluorogenic probes purchased from Applied Biosystems (TaqMan Gene Expression Assays, Foster City, Calif.): Ceramide Synthase 1 (Rn01420081_m1), Ceramide Synthase 2 (Rn01762789_m1), Ceramide Synthase 4 (Rn01767402_m1), Ceramide Synthase 5 (Rn01532864_m1), Ceramide Synthase 6 (Rn01270930_m1), Interleukin-6 (Rn01410330_m1). mRNA levels were normalized using beta actin, 18S ribosomal protein or glyceraldehyde-3-phosphate dehydrogenase as internal standards. Additional PCR primers were designed using Primer 3 (https://www.Frodo.wit.mit.edu), and the sequences are shown in S.Table XXX.
(§1) Mouse embryonic fibroblasts (MEFs) were prepared from mice embryo as previously reported. Briefly, pregnant mice at day 13 post coitum were sacrificed and the uteri were dissected out. Each embryo was separated from the placenta and the head and visceral tissues were removed. The remaining body was minced in PBS and incubated with 0.1 mM trypsin/1 mM EDTA at 37° C. for 15 min. Two volumes of Dulbecco's Modified Eagle Medium (DMEM) containing 10% fetal bovine serum (FBS) was added and stood for 5 minutes to settle down large pieces of unbroken tissues. The supernatant was then removed and centrifuged at 200×g for 5 min and suspended in fresh DMEM containing 10% FBS. Cells were cultured at 37° C. with 5% CO2.

[6] = test system: primary mouse embryonic fibroblasts (MEF); type: cell-based; conditions: for ceramide (d18:1/16:0) content: incubation of MEF with the drug alone
Experimental: (§2) Cells were washed with ice-cold phosphate-buffered saline (PBS) and scraped into 0.5 ml of methanol/water (1:1, vol:vol) containing the internal standards listed below. Protein concentrations were measured using the BCA protein assay (Pierce, Rockford, Ill., USA). Lipids were extracted with chloroform/methanol (2:1, vol:vol; 1.0 mL). The organic phases were collected, dried under nitrogen and dissolved in methanol for LC/MS analyses.
(§3) Helium was used as collision gas. […] Mobile phase composition was as described above.
as §1

[7] = test system: isolated mitochondria from primary MEF; assay: Lipid analysis of isolated mitochondria from MEF; type: cell-based, mouse
Experimental: as §2, §3, §1

[8] = test system: primary mouse embryonic fibroblasts (MEF); assay: Population doubling; type: cell-based; conditions: 1 mM; compared to control cells
Experimental: We plated 1×10^6 cells on a 60 mm dishes and treated them with 1 mM methamphetamine. Cells were trypsinized and re-plated at the same density (1×10^6 cells/dish) every 3 days for 6 passages. Population doublings were calculated according to the formula log (final cell number/plated cell number/log 2).

[9] = test system: primary mouse embryonic fibroblasts (MEF); assay: Crystal violet staining, cell morphology; type: cell-based; conditions: 48 h, 1 mM, passage 2
Experimental: To study cell morphology, cells were plated and treated in 6-well plates. After fixation, with 4% paraformaldehyde cells were stained with crystal violet (0.5% crystal violet in methanol:PBS, 1:1, v/v). After thorough wash in tap water, images were taken using a Westover Scientific Series 8 microscope.

[10] = test system: de novo ceramide biosynthesis; assay: Acute methamphetamine administration in rats: tissue lipid levels
Experimental: Forty-six male Sprague-Dawley rats (Charles River, Wilmington, Mass.), weighing approximately 360-420 g were used in these experiments.
Three groups of rats were used for these experiments. Group 1: On the day of the experiment, rats received two i.p. injections of methamphetamine, 10 mg/kg (n=6), or saline (n=6) every 2 h. Two hours after the last administration of methamphetamine or saline, rats were euthanized by decapitation. Brain, liver, kidney (left), heart, skin (hind paw), skeletal muscle (vastus lateralis muscle) were harvested. Brains and livers were snap-frozen in isopentane and other tissues were snap-frozen in liquid nitrogen and stored at −80° C. Group 2: On the day of the experiment, rats received two i.p. injections of methamphetamine, 1.5 mg/kg (n=6), or saline (n=6) every 2 h. Other details are the same as for group 1. Group 3: On the day of the experiment, five rats received two i.p. injections of 1.5 mg/kg methamphetamine every 2 h; five rats received two i.p. injections of 5 mg/kg methamphetamine every 2 h; six rats received two i.p. injections of 10 mg/kg D-methamphetamine every 2 h, and six rats received two i.p. injections of saline every 2 h. Two hours after the last injection, blood was collected by cardiac puncture under isoflurane anesthesia and immediately afterwards brain, skeletal muscle and skin were harvested and handled as described for group 1.
Briefly, frozen brain samples were weighed and homogenized in cold methanol containing appropriate internal standards (listed below). Lipids were extracted by adding chloroform and water (2/1, vol/vol) and fractionated through open-bed silica gel columns by progressive elution with chloroform/methanol mixtures. Fractions eluted from the columns were dried under nitrogen, reconstituted in chloroform/methanol (1:4, vol/vol; 0.1 ml) and subjected to LC/MS.
Sphingolipid molecular species were analyzed by tandem mass spectrometry, using an Agilent 1100 liquid chromatography coupled to an ESI-ion-trap XCT mass detector. Dihydroceramides and ceramides were separated on a Poroshell 300 SB C18 column (2.1×75 mm i.d., 5 μm; Agilent Technologies) maintained at 30° C. […] Extracted ion chromatograms were used to quantify the following ceramides: d18:1/16:0 [M+H]^+ (m/z=538.5>520.5>264.3), d18:0/16:0 [M+H]^+ (m/z=540.5>522.5), d18:1/18:0 [M+H]^+ (m/z=566.5>548.5>264.3), d18:0/18:0 [M+H]^+ (m/z=568.5>550.5), d18:1/24:0 [M+H]^+ (m/z=650.6>632.8>2643), d18:0/24:0 [M+H]^+ (m/z=652.6>634.8), d18:1/24:1 [M+H]^+ (m/z=648.6>630.8>264.3), d18:0/24:1 [M+H]^+ (m/z=650.6>632.8), using d18:1/12:0 [M+H]^+ (m/z=482.5>464.5>264.3) as an internal standard. […]

ceramide synthase (CerS) [11] = assay: Methamphetamine self-administration in rats: ceramide synthase activity in tissue; type: in vivo, rat; conditions: self-administering rats; data not shown
Experimental: (§4) Fresh rat tissues were collected in 1 ml of homogenization buffer (25 mM HEPES, pH 7.4, containing 5 mM EGTA, 50 mM NaF, and complete mini EDTA-free protease inhibitor). Tissues were disrupted using pulse homogenizer, and centrifuged at 800×g for 5 min. The postnuclear supernatant was centrifuged at 250,000×g for 30 min at 4° C. in ultracentrifuge. The microsomal membrane pellet was resuspended in 250-500 μl of homogenization buffer. Protein concentration was measured using the BCA protein assay (Pierce, Rockford, Ill.).
(§5) Ceramide synthase activity was measured at 37° C. for 1 hr in HEPES buffer (20 mM, pH 7.4) containing 2 mM MgCl2, fatty acid-free bovine serum albumin (20 μmol) membrane proteins (0.05-0.1 mg), using dihydrosphingosine (sphinganine d17:0, 20 μmol) and palmitoyl-coenzyme A (70 μmol) as substrates. The reactions were stopped by adding chloroform-methanol (2:1, v/v) containing C12:0 ceramide (d18:1/12:0) as an internal standard. Lipid extracts were dried under nitrogen and reconstituted in chloroform-methanol (1:3, v/v; 0.1 ml) for LC-MS analyses. Products of reaction were measured using an Agilent 1100-LC system coupled to ion-trap XCT and interfaced with ESI (Agilent Technologies). […] For quantification purposes, we monitored the ions at m/z 526.5>508.5 for C17:0 dihydroceramide (d17:0/16:0) and m/z 482.5>464.5>264.3 for C12:0 ceramide (d18:1/12:0).

[12] = test system: primary mouse embryonic fibroblasts (MEF); assay: DNA replication assay ([3H]thymidine); conditions: 48 h, 1 mM
ceramide synthase (CerS) [13] = assay: Acute methamphetamine administration in rats: ceramide synthase activity; type: in vivo, rat; conditions: non-contingent methamphetamine administration; data not shown
Experimental: Three groups of rats were used for these experiments. […] Other details are the same as for group 1.
as §4
as §5, with “Lipid extracts were dried under nitrogen and reconstituted in chloroform-methanol (1:3, v/v; 0.1 ml) for LC-MS analyses.” left out

[14] = test system: primary mouse embryonic fibroblasts (MEF); assay: ROS production in MEF (CM-H2DCFDA); type: cell-based; conditions: CYP inhibitors with methamphetamine
Experimental: Production of ROS was measured using the fluorescent probe CM-H2DCFDA (Invitrogen). This carboxy derivative of fluorescein carries additional negative charges that improve its retention compared to noncarboxylated forms. For these experiments, MEFs were grown in DMEM without phenol red, for which anti-oxidative properties have been reported. Cells were plated to subconfluence in 12-well plates, washed 3 times with pre-warmed PBS and loaded for 30 min at 37° C./5% CO2 with […] CM-H2DCFDA in DMEM without phenol red (loading medium). Then the loading medium was removed and pre-warmed fresh medium containing the different CYP450 inhibitors in presence or absence of methamphetamine was added. Fluorescence (excitation at 485 nm, emission at 530 nm) was analyzed immediately, cells were incubated at 37° C./5% CO2, and fluorescence was analyzed at the indicated time points. ROS rate versus control (%) was calculated subtracting the percentage of ROS increasing from time zero in the methamphetamine-treated samples to the percentage of ROS increasing from time zero in vehicle-treated samples.

[15] = skeletal muscle, rats self-administering methamphetamine vs controls
[16] = skeletal muscle, self-administering rats vs controls

Compound: N[C@H]1CONC1=O [L-cycloserine]
- expression of SA-β-gal by the cell-permeable ceramide analog C8 [1]: neither L-CS nor FB1 blocked
- amphetamine-induced inflammation and senescence [1]: prevent
- SA-β-gal expression induced by methamphetamine ([1]; inhibitor 30 μM): suppressed
- methamphetamine-induced reduction of food intake ([2]; L-CS treatment): did not alter
- meth induced changes in body temperature ([2]; L-CS treatment, listed as L-CS): did not alter
- methamphetamine self-administration ([2]; L-CS treatment, listed as L-CS): no effect; also recorded: did not alter
- body weight (wasting phenotype) ([2]; methamphetamine self-administering animals treated with L-CS, listed as L-CS): able to rescue the wasting phenotype; also recorded: corrected the abnormalities in body weight
- methamphetamine induced increases in ceramide content ([3]; 8 days self-administration, L-CS i.v. from 4 days into the study (10 then 20 mg/kg before and after sessions)): blocked
- methamphetamine-induced increase of ceramide ([4]; methamphetamine in combination with L-CS): block the increase
- methamphetamine-induced increase in the transcription of IL-6, TNF-alpha, p21 and p53 ([5]; MEF, co-administration with methamphetamine): blocked
- methamphetamine induced increases in ceramide ([6]; primary MEF, inhibitor 30 μM): able to block
- methamphetamine induced increases in ceramide ([7]; isolated mitochondria from primary MEF, inhibitor 30 μM): able to block

Compound: CN[C@@H](C)Cc1ccccc1 [methamphetamine, S(+)-methylamphetamine HCl]
- number of population doublings [8]: decreased
- cell morphology [9]: morphological changes typical of senescent phenotype
- striatal levels of various ceramide species ([10]; dorsal striatum, 2×10 mg/kg intraperitoneal): marked increase
- changes in ceramide species ([10]; low doses (i.e., non-toxic)): did not induce any changes
- ceramide levels in peripheral tissues ([10]; plasma, skeletal muscle, heart, liver and skin, 2×10 mg/kg intraperitoneal): marked increases
- d18:1/16:0 ceramide levels ([10]; rat skeletal muscle, intraperitoneal 3, 10, and 20 mg/kg): dose-dependent increase
- CerS activity (ceramide synthase (CerS) [11]): increased
- number of SA-β-gal positive cells ([1]; 1 mM, 48 h, passage 1 to 4, vs vehicle-treated cells): increased
- increase in the number of SA-β-gal positive cells ([1]; 1 mM, 48 h, passage 3, versus non-treated cells): greater than 4 fold
- number of SA-β-gal positive cells ([1]; 1 mM, 48 h, passage 5): did not further increase
- increase in ceramide (d18:1/16:0) [3, 15]: 4 fold
- increase in dihydroceramide (d18:1/16:0) [3, 15]: 4 fold
- levels of dihydrosphingomyelin (d18:1/16:0) [3, 16]: unchanged
- levels of sphingomyelin (d18:1/16:0) [3, 16]: unchanged
- multiple ceramide species ([3]; various tissues, largest increase in skeletal muscle, heart and liver, methamphetamine-exposed rats vs controls): substantially increased
- ceramide content ([4]; acute treatment with methamphetamine alone): increased
- DNA synthesis, [3H]-thymidine [12]: decreased
- mRNA levels of the genes involved de novo ceramide biosynthesis ([5]; MEF treated with methamphetamine): increased
- p21 and p53 transcription ([5]; MEF, methamphetamine treatment): increase
- CerS activity (ceramide synthase (CerS) [13]): increased
- ceramide (d18:1/16:0) content [6]: increased ceramide (d18:1/16:0) in a dose-dependent manner
- long chain ceramides (d18:1/24:0 and d18:1/24:1) ([7]; methamphetamine 1 mM): mitochondrial specific increase
- short chain ceramide (d18:1/16:0) ([7]; methamphetamine 1 mM): increases

Compound: O=C1CCC(N2C(=O)c3ccccc3C2=O)C(=O)N1 (stereo not drawn) [thalidomide]
- amphetamine-induced inflammation and senescence [1]: prevent

Compound: CCCC[C@@H](C)[C@@H](OC(=O)C[C@@H](CC(=O)O)C(=O)O)[C@H](C[C@@H](C)C[C@H](O)CCCC[C@@H](O)C[C@H](O)[C@H](C)N)OC(=O)C[C@@H](CC(=O)O)C(=O)O [Fumonisin B1]
- expression of SA-β-gal by the cell-permeable ceramide analog C8 ([1]; C8 in presence of L-CS or FB1): neither L-CS nor FB1 blocked
- SA-β-gal expression induced by methamphetamine ([1]; inhibitor 50 μM): suppressed

Compound: CN[C@@H](C)Cc1ccccc1.Cl [L-methamphetamine, L-methamphetamine hydrochloride]
- ceramide (d18:1/16:0) content [6]: no such effect

Compound: CN/C(=N/CCSCc1nc[nH]c1C)NC#N [cimetidine]
- ceramide formation in D-meth-treated cells [6]: normalized
- release of ROS evoked by methamphetamine [14]: prevented

Compound: C[C@H](N)Cc1ccccc1 [d-amphetamine]
- ceramide (d18:1/16:0) content [6]: modest but statistically significant (p<0.014) increase

Compound: TNF-α
- cellular ceramide content ([6]; MEF, TNF-α treatment activating NF-κB): mimic the effects of methamphetamine

Compound: CCCCc1ccc(N=CNO)c(C)c1 [HET-0016]
- ceramide formation in D-meth-treated cells ([6]; MEF, inhibitors each at 10 μM): ineffective

Compound: CCCC(C(=O)OCCN(CC)CC)(c1ccccc1)c1ccccc1 [SKF-525A]
- ceramide formation in D-meth-treated cells ([6]; MEF, inhibitors each at 10 μM): normalized
- release of ROS evoked by methamphetamine [14]: prevented

Compound: C=C[C@H]1C[N@@]2CC[C@H]1C[C@@H]2[C@@H](O)c1ccnc2ccc(OC)cc12 [quinidine]
- ceramide formation in D-meth-treated cells ([6]; MEF, inhibitors each at 10 μM): normalized
- release of ROS evoked by methamphetamine [14]: prevented
